The IC50 is the concentration that inhibits the measured activity by half. Low readings indicate inhibition by little substance, high ones a need for much substance. Usually inhibition stands for the relative decrease from the control value, in per cent.

IC50, inhibition and c-SRC percent inhibition data for five compounds are collected here from US7659284B2, “Thiazolopyridine kinase inhibitors” (Janssen Pharmaceutica NV, priority 2004, dated 2010).

Format in all cases: biochemical
The target in assay [1] is T1, c-Src kinase (human) (Homo sapiens, UniProt P12931).
T1 construct: purchased Upstate Biotechnology, Lake Placid, N.Y
T1 sequence (P12931 whole entry): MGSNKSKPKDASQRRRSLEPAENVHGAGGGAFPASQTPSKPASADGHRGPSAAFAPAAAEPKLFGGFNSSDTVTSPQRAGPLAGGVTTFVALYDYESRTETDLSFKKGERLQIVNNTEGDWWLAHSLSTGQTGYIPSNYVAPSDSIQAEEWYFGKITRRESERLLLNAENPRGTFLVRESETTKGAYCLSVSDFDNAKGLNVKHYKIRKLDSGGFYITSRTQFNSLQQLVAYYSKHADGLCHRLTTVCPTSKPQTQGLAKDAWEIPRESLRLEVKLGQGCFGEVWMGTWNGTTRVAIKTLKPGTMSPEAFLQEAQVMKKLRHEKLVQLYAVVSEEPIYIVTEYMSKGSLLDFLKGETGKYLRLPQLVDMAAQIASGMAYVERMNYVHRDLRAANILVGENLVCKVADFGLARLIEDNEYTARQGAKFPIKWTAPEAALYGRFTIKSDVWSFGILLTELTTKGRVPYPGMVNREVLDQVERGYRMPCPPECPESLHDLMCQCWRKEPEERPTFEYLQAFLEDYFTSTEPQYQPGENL
The assay can be described thus: c-Src Kinase Assay. The conditions noted are these: for IC50: human c-Src, 5 μM ATP; for inhibition at 1 µM: test concentration (1) 1 μM, read-out: c-SRC percent inhibition. The protocol:
[…] a 10× kinase buffer (80 mM MOPS at pH 7.0, 2 mM EDTA and 100 mM Magnesium Chloride), ATP (5 μM final from a 10 mM stock), a Cdc2 peptide KVEKIGEGTYGVVYK (100 μM final from a 2.5 mM stock), γ-^33P ATP (10 μCi/μL stock) and water (20 μL/well) was added to each well of a Streptavidin Flashplate.
Test compound in 100% DMSO (0.5 μL) was added to the appropriate wells. Diluted c-Src kinase (human) (Upstate Biotechnology, Lake Placid, N.Y.) (diluted in a buffer consisting of 20 mM MOPS at pH 7.0, 1 mM EDTA, β-mercaptoethanol (0.1%), Brij-35 (0.01%), glycerol (5%), and 1 mg/mL bovine serum albumin) (2.5 μL) was added to the wells to initiate the reactions. The reaction plates were incubated at 30° C. for 40 min. The reaction was terminated by the addition of a 3% phosphoric acid solution (5 μL). The reaction product (10 μL) was spotted onto a P30 filtermat and washed for 5 minutes in phosphoric acid (75 mM). The wash sequence was repeated two more times, followed with one final wash in methanol. The plates were then dried, sealed and read on the TopCount scintillation counter after adding 30 μL scintillation fluid.
The percent inhibitions and IC50 values were derived according to the procedure described in Example 52. For those compounds without an IC50, the percent inhibition results are shown at a test concentration of ^(1)1 μM or ^(2)1.6 μM.

Assay [2] addresses LYN (m) (Mus musculus, UniProt P25911). The assay is described as follows: Lyn Kinase Assay (m). As to conditions: for inhibition at 1 µM: test concentration (1) 1 μM, read-out: LYN percent inhibition (m).
For assay [3], the target named is T2, EGFR (Homo sapiens, UniProt P00533).
T2 construct: started at nucleotide 2189 (corresponding to amino acid 667) and ended at the termination codon; made in house; host or cells: Sf9 insect cells (baculovirus)
T2 sequence (P00533 667-1210 limits assumed): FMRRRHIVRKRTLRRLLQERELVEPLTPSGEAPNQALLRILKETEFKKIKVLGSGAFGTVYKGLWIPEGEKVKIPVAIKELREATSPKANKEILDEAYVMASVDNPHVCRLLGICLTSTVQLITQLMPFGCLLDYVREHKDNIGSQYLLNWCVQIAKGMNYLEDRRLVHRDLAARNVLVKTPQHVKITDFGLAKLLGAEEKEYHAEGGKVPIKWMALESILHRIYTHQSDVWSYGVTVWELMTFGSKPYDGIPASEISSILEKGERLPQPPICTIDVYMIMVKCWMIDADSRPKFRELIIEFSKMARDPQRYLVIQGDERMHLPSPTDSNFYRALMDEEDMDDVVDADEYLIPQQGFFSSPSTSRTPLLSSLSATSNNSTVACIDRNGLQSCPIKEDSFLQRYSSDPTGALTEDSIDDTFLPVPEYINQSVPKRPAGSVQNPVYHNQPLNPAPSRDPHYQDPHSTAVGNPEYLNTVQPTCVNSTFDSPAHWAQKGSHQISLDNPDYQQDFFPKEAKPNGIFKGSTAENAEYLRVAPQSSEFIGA
The assay is described as follows: EGFR Kinase Assay (GST-EGFR, 33P-ATP, Streptavidin Flashplate). The conditions noted are these: for IC50: GST-EGFR intracellular portion, 5 μM ATP. An excerpt:
The EGFR kinase used was a fusion of Glutathione-S-Transferase (GST) and a PCR amplified intracellular portion of EGFR (NM_005228). The intracellular portion of EGFR started at nucleotide 2189 (corresponding to amino acid 667) and ended at the termination codon. The portion was PCR amplified with primers that added the lambda attB sequences to each end, recombined into an entry vector, then into a GST destination vector (as described in Gateway Technologies Manual by Invitrogen Corporation, Carlsbad, Calif.).
The destination vector was recombined in the DH10BAC strain of bacteria to produce a bacmid. The bacmid was transfected into Sf 9 cells and the supernatant containing the baculovirus was collected. The GSTEGFR protein was purified using large cultures of Sf 9 cells infected with stock virus. After an appropriate period of time, the cells were collected and lysed. The GSTEGFR was then purified from the lysate on Glutathione-Sepharose columns (as described by Amersham Biosciences, Buckinghamshire, United Kingdom).
The EGFR substrate was prepared by biotinylating polyGluTyr (128 mg) (Sigma, St. Louis, Mo.) in a 1×PBS buffer incubated together with a 12-fold molar excess of Sulfo-NHS-LC-Biotin on ice for at least 2 hrs. The free biotin was separated from the biotinylated polyGluTyr on a gel filtration column.
A mixture of a 10× kinase buffer (500 mM Tris at pH 8.0, 100 mM Magnesium Chloride and 1 mM Sodium Vanadate), DTT (1 mM final from 500 mM stock), ATP (5 μM final from 10 mM stock), biotinylated polyGluTyr (10 μg/μL stock), γ-^33P ATP (10 μCi/μL stock) and water was added to each well (90 μL/well) of a Streptavidin Flashplate (Perkin Elmer, Wellesley, Mass.).
Test compound in 100% DMSO (2 μL) was added to the appropriate wells. Diluted GSTEGFR (1:300 dilution in 50 mM Tris at pH 8.0 and 0.1% bovine serum albumin) (10 μL) was added to the wells to initiate the reactions.
The plates were incubated at 30° C. for 1 hr with shaking. The reacted contents were removed and the plates were sequentially washed three times with a 1×PBS stop buffer (300 μL without Magnesium and Calcium) and 100 mM EDTA. After the final wash, the same stop buffer (200 μL) was added to the wells. The plates were then sealed and read on the TopCount scintillation counter.
Test compounds were assayed in triplicate at 16 concentrations at half-log dilutions starting at 200 uM. A maximum and minimum signal for the assay was determined on each plate. The percent inhibition of a test compound was calculated accord to the formula
For a series of test concentrations, the IC50 was derived by graphing percent inhibition against the log of the concentrations tested for a given compound. For those compounds without an IC50, the percent inhibition results are shown at a test concentration of 2 μM.

Assay [4] concerns the target T3, HER-2 (Homo sapiens, UniProt P04626).
T3 construct: the nucleotides encoding amino acids 679 to 1255 of HER-2; HIS6 with thrombin site (N); purchased Proqinase (Freiburg, Germany)
The assay is described as follows: HER-2 Kinase Assay. The conditions noted are these: GST-HER2 kinase, 1 μM ATP. The procedure:
The HER-2 kinase used was purified at Proqinase (Freiburg, Germany) from a construct that consisted of a fusion of GST (Glutathione-S-Transferase), HIS6-Thrombin and the nucleotides encoding amino acids 679 to 1255 of HER-2.
A mixture of a 10× kinase reaction buffer (600 mM Hepes at pH 7.5, 30 mM Magnesium Chloride, 0.03 mM Sodium Vanadate and 500 μg/mL PEG 20,000), DTT (1.2 mM final from a 10 mM stock), ATP (1 μM from a 10 mM stock), biotinylated polyGluTyr (1.5 ng/μL final from stock of 1 μg/μL prepared by Upstate Biotechnologies, Lake Placid, N.Y.), Manganese Chloride (3 mM final from a 1 M stock), γy-^33P-ATP (10 μCi/μL stock) and water (70 μL/well) was added to each well of a Streptavidin Flashplate (Cat. # SMP103, NEN, Boston, Mass.).
Test compound stock (1 μL) was added to the appropriate wells. Diluted GSTHER2 kinase (6.7 ng/μL diluted into 50 mM Tris-HCl at pH 8.0 and 0.1% bovine serum albumin) (30 μL) was added (total volume of 200 ng/well) to initiate the reactions.
The reaction plates were incubated at 30° C. for 1 hr. The reaction was terminated by aspirating the reaction mixture from the plate wells and washing the wells three times with a 1×PBS stop buffer (300 μL) and 100 mM EDTA. After the final wash, the same stop buffer (200 μL) was again added to the wells. The plates were then sealed and read on the TopCount scintillation counter.
The IC50 was derived according to the procedure described in Example 52. For those compounds without an IC50, the percent inhibition results are shown at a test concentration of 1 μM.

In assay [5] the target is T4, Lyn kinase (human) (Homo sapiens, UniProt P07948).
T4 construct: purchased Upstate Biotechnology, Lake Placid, N.Y
T4 sequence (P07948 whole entry): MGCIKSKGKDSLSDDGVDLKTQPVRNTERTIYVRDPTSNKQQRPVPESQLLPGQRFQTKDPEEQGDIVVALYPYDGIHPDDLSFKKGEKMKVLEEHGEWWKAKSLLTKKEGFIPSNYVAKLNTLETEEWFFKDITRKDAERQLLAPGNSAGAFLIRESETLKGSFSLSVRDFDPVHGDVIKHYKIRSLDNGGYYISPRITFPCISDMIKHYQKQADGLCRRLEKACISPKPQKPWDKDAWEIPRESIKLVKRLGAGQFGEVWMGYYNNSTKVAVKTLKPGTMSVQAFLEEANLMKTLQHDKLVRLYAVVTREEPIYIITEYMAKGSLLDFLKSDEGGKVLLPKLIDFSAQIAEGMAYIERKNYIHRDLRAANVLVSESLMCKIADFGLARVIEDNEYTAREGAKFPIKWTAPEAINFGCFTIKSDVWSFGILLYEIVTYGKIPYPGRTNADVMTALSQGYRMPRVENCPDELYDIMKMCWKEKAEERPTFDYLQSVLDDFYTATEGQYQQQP
The assay can be described thus: Lyn Kinase Assay (h). As to conditions: for IC50: (h) human Lyn, 5 μM ATP; for inhibition at 1 µM: test concentration (1) 1 μM. The protocol:
A mixture of a 10× kinase buffer (500 mM MOPS at pH 7.5, 1 mM EGTA, 1 mM Sodium Vanadate, 1% β-mercaptoethanol and 100 mM Magnesium Acetate), ATP (5 μM final from a 10 mM stock), polyGluTyr (0.1 mg/mL final from a 1 mg/mL stock), γ-^33P ATP (10 μCi/μL stock) and water (20 μL/well) was added to each well of a Streptavidin Flashplate.
Test compound in 100% DMSO (0.5 μL) was added to the appropriate wells. Diluted Lyn kinase (human) (Upstate Biotechnology, Lake Placid, N.Y.) (diluted in a buffer consisting of 50 mM Tris at pH 7.5, 0.1 mM EGTA, Sodium Vanadate (0.1 mM), β-mercaptoethanol (0.1%) and 1 mg/mL bovine serum albumin) (2.5 μL) was added to the wells to initiate the reactions.
The reaction plates were incubated at 30° C. for 40 min. The reaction was terminated by the addition of a 3% phosphoric acid solution (5 μL). The reaction product (10 μL) was spotted onto a P30 filtermat and washed for 5 minutes in phosphoric acid (75 mM). The wash sequence was repeated two more times, followed with one final wash in methanol. The plates were then dried, sealed and read on the TopCount scintillation counter after adding 30 μL scintillation fluid.
The percent inhibitions and IC50 values were derived according to the procedure described in Example 52. For those compounds without an IC50, the percent inhibition results are shown at a test concentration of ^(1) 1 μM or ^(2) 1.6 μM.

Where [6] appears, read: (h), read-out: LYN percent inhibition (h).

Molecules are shown by their SMILES. Where “and” joins values, the source holds several entries; their conditions need not be identical. Equal values may be shown once. Some results are limits rather than exact numbers.

T3 sequence (P04626 679-1255): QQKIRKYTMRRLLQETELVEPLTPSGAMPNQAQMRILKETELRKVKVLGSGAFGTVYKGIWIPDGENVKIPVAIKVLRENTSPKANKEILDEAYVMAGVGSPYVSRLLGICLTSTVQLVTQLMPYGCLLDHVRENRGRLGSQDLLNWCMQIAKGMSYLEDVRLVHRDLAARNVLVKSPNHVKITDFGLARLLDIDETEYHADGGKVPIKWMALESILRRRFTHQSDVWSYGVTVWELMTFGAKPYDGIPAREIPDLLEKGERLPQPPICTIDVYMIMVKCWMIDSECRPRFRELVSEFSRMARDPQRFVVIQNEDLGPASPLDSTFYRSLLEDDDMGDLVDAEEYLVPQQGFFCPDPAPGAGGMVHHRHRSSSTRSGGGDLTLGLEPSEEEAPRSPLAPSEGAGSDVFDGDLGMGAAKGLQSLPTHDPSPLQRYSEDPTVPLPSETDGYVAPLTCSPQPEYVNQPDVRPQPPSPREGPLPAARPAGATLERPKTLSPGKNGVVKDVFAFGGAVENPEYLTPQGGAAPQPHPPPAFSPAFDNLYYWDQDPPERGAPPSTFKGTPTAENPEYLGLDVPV
LYN (m), sequence (P25911 whole entry): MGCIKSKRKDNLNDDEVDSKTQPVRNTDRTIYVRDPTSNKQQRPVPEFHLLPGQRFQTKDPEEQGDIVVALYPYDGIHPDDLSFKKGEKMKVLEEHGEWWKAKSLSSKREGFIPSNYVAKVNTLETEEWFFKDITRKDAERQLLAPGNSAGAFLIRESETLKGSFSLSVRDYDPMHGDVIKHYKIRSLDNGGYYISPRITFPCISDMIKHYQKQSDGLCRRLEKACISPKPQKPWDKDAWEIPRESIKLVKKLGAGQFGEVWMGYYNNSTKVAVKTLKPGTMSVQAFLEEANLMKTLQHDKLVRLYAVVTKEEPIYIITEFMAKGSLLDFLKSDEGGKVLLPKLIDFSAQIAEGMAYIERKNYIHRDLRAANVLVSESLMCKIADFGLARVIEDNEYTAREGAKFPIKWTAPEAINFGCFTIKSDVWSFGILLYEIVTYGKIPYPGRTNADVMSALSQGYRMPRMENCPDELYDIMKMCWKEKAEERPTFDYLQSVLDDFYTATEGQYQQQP

`CN(C)Cc1ccc(Nc2nc3ncc(C#N)c(Nc4cccc5c4OC(F)(F)O5)c3s2)cc1` [Cpd 25, 7-(2,2-difluoro-benzo[1,3]dioxol-4-ylamino)-2-(4-dimethylaminomethyl-phenylamino)-thiazolo[4,5-b]pyridine-6-carbonitrile]: the IC50 in assay [1] is 1410 nM; in assay [2] it was 790 nM; in assay [3], 43.3 nM; in assay [4], 92700 nM; in assay [5], 224 nM.
Turning to `C#Cc1cccc(Nc2c(C#N)cnc3nc(Nc4ccc(S(=O)(=O)NCCCN(C)C)cc4)sc23)c1` [Cpd 23, 4-[6-cyano-7-(3-ethynyl-phenylamino)-thiazolo[4,5-b]pyridin-2-ylamino]-N-(3-dimethylamino-propyl)-benzenesulfonamide], the figures for the inhibition at 1 µM in assay [1], in assay [2] and in assay [5] (setting [6]) were -2%, 42% and 8%, respectively. The same compound registered an IC50 in assay [3] of 20.4 nM.
Consider `N#Cc1cnc2nc(Nc3ccc(CN4CCCC4)cc3)sc2c1Nc1ccc(OCc2cccc(F)c2)c(Cl)c1` [Cpd 24, 7-[3-chloro-4-(3-fluoro-benzyloxy)-phenylamino]-2-(4-pyrrolidin-1-ylmethyl-phenylamino)-thiazolo[4,5-b]pyridine-6-carbonitrile], for which the inhibition at 1 µM in assay [1] is 15%; in assay [2] it was 10%; in assay [5] (setting [6]), -5%. For the same compound, the IC50 in assay [3] came out at 33.3 nM; in assay [4], 2060 nM.
Compound `CN1CCN(Cc2ccc(Nc3nc4ncc(C#N)c(Nc5ccc(Oc6ccccc6)cc5)c4s3)cc2)CC1` [Cpd 51, 2-[4-(4-methyl-piperazin-1-ylmethyl)-phenylamino]-7-(4-phenoxy-phenylamino)-thiazolo[4,5-b]pyridine-6-carbonitrile] displayed a c-SRC percent inhibition in assay [1] (test concentration not marked (1 μM or 1.6 μM)) of 0%. Moreover, the inhibition at 2 µM in assay [3] (test concentration of 2 μM, read-out: EGFR percent inhibition) was 0%. In assay [4], the IC50 is more than 100000 nM. Further, the inhibition at 1.6 µM in assay [5] ((h), test concentration (2) 1.6 μM, read-out: LYN percent inhibition (h)) worked out at 37%.
With `N#Cc1cnc2nc(Nc3ccc(CN4CCOCC4)cc3)sc2c1Nc1c(Cl)ccc2c1OCO2` [Cpd 20, 7-(5-chloro-benzo[1,3]dioxol-4-ylamino)-2-(4-morpholin-4-ylmethyl-phenylamino)-thiazolo[4,5-b]pyridine-6-carbonitrile], the IC50 in assay [1] was 11 nM; in assay [2], 9 nM; in assay [3] it was 378 nM and 941 nM; in assay [5] it was 11 nM.
